Laboratory results published in US20240245780A1, “PHARMACEUTICAL COMPOSITIONS CONTAINING STABLE AMORPHOUS SOLID SOLUTIONS AND DISPERSIONS” (Eastman Chemical Company, priority 2021, published 2024).
Like-named read-outs stand apart in the source and are kept apart here.

What was measured:
[1] = Solubility study of PSD in heated SAIB, HPLC; format: physicochemical
Method: Analysis of drugs was performed by HPLC. […] Solubility was determined in three replicates for each drug.
SAIB was heated to 150° C. (RFX, DST, DLT, CYS, ITZ, SRL, APT and CBZ) or 130° C. (TAC and APZ), followed by addition of a known amount of the drug to dissolve in 30 min. Approximately, 100 mg of each sample were transferred to a 100-mL volumetric flask, and volume was made up with the mobile phase to dissolve the drug. The amount of dissolved drug was determined by validated HPLC.

[2] = cited from earlier work
[3] = JECFA 1996, including pediatric populations; cited from earlier work
[4] = SAIB temperature 150° C., 30 min, three replicates

| Compound | Solubility in SAIB [1, 4] | pKa [2] | Increase in Solubility Relative to Water [1] [x] | also measured |
| --- | --- | --- | --- | --- |
| CCC(C)n1ncn(-c2ccc(N3CCN(c4ccc(OCC5COC(Cn6cncn6)(c6ccc(Cl)cc6Cl)O5)cc4)CC3)cc2)c1=O (stereo not shown) [Itraconazole] | insoluble | – | – | – |
| CO[C@H]1C[C@@H]2CC[C@@H](C)[C@@](O)(O2)C(=O)C(=O)N2CCCC[C@H]2C(=O)O[C@H]([C@H](C)C[C@@H]2CC[C@@H](O)[C@H](OC)C2)CC(=O)[C@H](C)/C=C(\C)[C@@H](O)[C@@H](OC)C(=O)[C@H](C)C[C@H](C)/C=C/C=C/C=C/1C [Sirolimus] | 1.9 ± 0.0 mg/g | 10 | – | – |
| O=C1CCc2ccc(OCCCCN3CCN(c4cccc(Cl)c4Cl)CC3)cc2N1 [Aripiprazole] | – | – | – | Solubility in SAIB [1]: 21.6 ± 2.6 mg/g |
| sucrose acetate isobutyrate [SAIB] | – | – | – | permanent acceptable daily intake [3]: up to 20 mg/kg body weight; log P of SAIB [2]: 6 |
| CO[C@H]1/C=C/O[C@@]2(C)Oc3c(C)c(O)c4c(O)c(c5c(nc6cc(C)ccn65)c4c3C2=O)NC(=O)/C(C)=C\C=C\[C@H](C)[C@H](O)[C@@H](C)[C@@H](O)[C@@H](C)[C@H](OC(C)=O)[C@@H]1C [Rifaximin] | – | 7 | – | Solubility in SAIB (in words) [1]: high solubility |
| C[C@@H](O[C@H]1OCCN(Cc2n[nH]c(=O)[nH]2)[C@H]1c1ccc(F)cc1)c1cc(C(F)(F)F)cc(C(F)(F)F)c1 [Aprepitant] | – | 10 | 55.7 | – |
| C[C@@H]1CCO[C@H]2Cn3cc(C(=O)NCc4ccc(F)cc4F)c(=O)c(O)c3C(=O)N12 [Dolutegravir] | 1.7 ± 0.4 mg/g | 8 | – | – |
| NC(=O)N1c2ccccc2C=Cc2ccccc21 [Carbamazepine] | 76.5 ± 4.0 mg/g | – | 532.3 | Solubility in SAIB (in words) ([1]; SAIB at 130 or 150° C.): high solubility; Solubility in SAIB ([1]; SAIB temperature 150° C., 30 min, three replicates, listed as CBZ): 76.5 ± 4.0 mg/g |
| Cc1nc(Nc2ncc(C(=O)Nc3c(C)cccc3Cl)s2)cc(N2CCN(CCO)CC2)n1 [Dasatinib] | insoluble | – | – | – |
| C=CC[C@@H]1/C=C(\C)C[C@H](C)C[C@H](OC)[C@H]2O[C@@](O)(C(=O)C(=O)N3CCCC[C@H]3C(=O)O[C@H](/C(C)=C/[C@@H]3CC[C@@H](O)[C@H](OC)C3)[C@H](C)[C@@H](O)CC1=O)[C@H](C)C[C@@H]2OC [Tacrolimus] | – | 10 | 9591.7 | Solubility in SAIB (in words) ([1]; SAIB at 130 or 150° C.): high solubility; Solubility in SAIB ([1]; SAIB temperature 130° C., 30 min, three replicates, listed as TAC): 115.1 ± 2.3 mg/g; Solubility in SAIB ([1]; SAIB temperature 130° C., 30 min, three replicates, listed as Tracolimus): 115.1 ± 2.3 mg/g |
